Experimental data published in US7074789B2, “Kinase inhibitors” (Amgen Inc., priority 1999, dated 2006).
Read-outs that look alike come from different tables or passages of the source.

Tests used:
Format in all cases: biochemical
Kdr = target: T1, Kdr (Homo sapiens, UniProt P35968); assay: Kinase inhibition assay (33P transfer), Kdr; conditions: read-out: KDR-1
T1 construct: Kinases are expressed as either kinase domains or full length constructs; made in house
Outline: (§1)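 Filterless plate radiometric format: immobilized poly(Glu,Tyr) 4:1 or poly(Arg,Ser) 3:1, 33P-labelled ATP, tagged recombinant kinase (some with regulatory partners). Incorporated label counted after phosphoric acid wash.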

EGFR = target: T2, EGFR (Homo sapiens, UniProt P00533); assay: Kinase inhibition assay (33P transfer), EGFR; conditions: Table 2, kinase inhibition class; read-out: EGFR-1
T2 construct: Kinases are expressed as either kinase domains or full length constructs; made in house
Outline: (§2)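 Each enzyme, purified to near homogeneity by affinity chromatography, was incubated with ATP carrying 33P and a substrate polymer fixed to the plate. Unbound label was removed with dilute phosphoric acid (0.5%) before adding scintillant and counting. Potency is given as the compound level cutting label uptake by 50%.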

Tek = target: T3, Tek (Homo sapiens, UniProt Q02763); assay: Kinase inhibition assay (33P transfer), Tek; conditions: read-out: Tek-1
T3 construct: Kinases are expressed as either kinase domains or full length constructs; made in house
Text: The inhibitor compounds described herein are screened in the following manner. Kinases suitable for use in the following protocol to determine kinase activity of the compounds described herein include, -but are not limited to: Lck, Lyn, Src, Fyn, Syk, Zap-70, Itk, Tec, Btk, EGFR, ErbB2, Kdr, Flt-1, Flt-3, Tek, c-Met, InsR, and AKT.
Kinases are expressed as either kinase domains or full length constructs fused to glutathione S-transferase (GST) or polyHistidine tagged fusion proteins in either E. colior Baculovirus-High Five expression systems. They are purified to near homogeneity by affinity chromatography essentially as previously described (Lehr et al., 1996; Gish et al., 1995). In some instances, kinases are co-expressed or mixed with purified or partially purified regulatory polypeptides prior to measurement of activity.
Kinase activity and inhibition are measured essentially by established protocols (Braunwalder et al., 1996). Briefly, The transfer of ^33PO4 from ATP to the synthetic substrates poly(Glu, Tyr) 4:1 or poly(Arg, Ser) 3:1 attached to the bioactive surface of microtiter plates serves as the basis to evaluate enzyme activity. After an incubation period, the amount of phosphate transferred is measured by first washing the plate with 0.5% phosphoric acid, adding liquid scintillant, and then counting in a liquid scintillation detector. The IC50 is determined by the concentration of compound that causes a 50% reduction in the amount of […] incorporated onto the substrate bound to the plate.

AKT = target: T4, AKT (Homo sapiens, UniProt Q9Y243); assay: Kinase inhibition assay (33P transfer), AKT; conditions: Table 2, kinase inhibition class; read-out: AKT3-1
T4 construct: Kinases are expressed as either kinase domains or full length constructs; made in house
Outline: as §1

c-Met = target: T5, c-Met (Homo sapiens, UniProt P08581); assay: Kinase inhibition assay (33P transfer), c-Met; conditions: Table 2, kinase inhibition class; read-out: Met-1
T5 construct: Kinases are expressed as either kinase domains or full length constructs; made in house
Outline: as §2

Lck = target: T6, Lck (Homo sapiens, UniProt P06239); assay: Kinase inhibition assay (33P transfer), Lck; conditions: read-out: Lck-1
T6 construct: Kinases are expressed as either kinase domains or full length constructs; made in house
Outline: as §1

Zap-70 = target: T7, Zap-70 (Homo sapiens, UniProt P43403); assay: Kinase inhibition assay (33P transfer), Zap-70; conditions: read-out: Zap-1
T7 construct: Kinases are expressed as either kinase domains or full length constructs; made in house
T7 sequence (P43403 1-619): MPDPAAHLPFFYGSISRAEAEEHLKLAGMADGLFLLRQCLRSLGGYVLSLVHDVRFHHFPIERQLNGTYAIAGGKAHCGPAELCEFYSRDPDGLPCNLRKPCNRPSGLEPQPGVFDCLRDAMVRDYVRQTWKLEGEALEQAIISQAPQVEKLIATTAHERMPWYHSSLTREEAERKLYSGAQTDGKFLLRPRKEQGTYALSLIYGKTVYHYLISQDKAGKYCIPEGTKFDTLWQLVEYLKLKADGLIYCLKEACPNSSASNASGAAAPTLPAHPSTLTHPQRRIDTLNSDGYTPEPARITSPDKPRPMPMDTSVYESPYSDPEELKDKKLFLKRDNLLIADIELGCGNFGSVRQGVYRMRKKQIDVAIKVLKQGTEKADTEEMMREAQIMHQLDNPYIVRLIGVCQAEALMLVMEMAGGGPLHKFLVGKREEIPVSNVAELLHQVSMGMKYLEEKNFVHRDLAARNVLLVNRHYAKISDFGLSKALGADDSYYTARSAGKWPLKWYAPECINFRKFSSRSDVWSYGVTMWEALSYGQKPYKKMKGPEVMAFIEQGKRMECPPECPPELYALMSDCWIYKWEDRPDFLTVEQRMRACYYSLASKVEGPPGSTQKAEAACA
Outline: as §1

Itk = target: T8, Itk (Homo sapiens, UniProt Q08881); assay: Kinase inhibition assay (33P transfer), Itk; conditions: read-out: Itk-1
T8 construct: Kinases are expressed as either kinase domains or full length constructs; made in house
T8 sequence (Q08881 1-620): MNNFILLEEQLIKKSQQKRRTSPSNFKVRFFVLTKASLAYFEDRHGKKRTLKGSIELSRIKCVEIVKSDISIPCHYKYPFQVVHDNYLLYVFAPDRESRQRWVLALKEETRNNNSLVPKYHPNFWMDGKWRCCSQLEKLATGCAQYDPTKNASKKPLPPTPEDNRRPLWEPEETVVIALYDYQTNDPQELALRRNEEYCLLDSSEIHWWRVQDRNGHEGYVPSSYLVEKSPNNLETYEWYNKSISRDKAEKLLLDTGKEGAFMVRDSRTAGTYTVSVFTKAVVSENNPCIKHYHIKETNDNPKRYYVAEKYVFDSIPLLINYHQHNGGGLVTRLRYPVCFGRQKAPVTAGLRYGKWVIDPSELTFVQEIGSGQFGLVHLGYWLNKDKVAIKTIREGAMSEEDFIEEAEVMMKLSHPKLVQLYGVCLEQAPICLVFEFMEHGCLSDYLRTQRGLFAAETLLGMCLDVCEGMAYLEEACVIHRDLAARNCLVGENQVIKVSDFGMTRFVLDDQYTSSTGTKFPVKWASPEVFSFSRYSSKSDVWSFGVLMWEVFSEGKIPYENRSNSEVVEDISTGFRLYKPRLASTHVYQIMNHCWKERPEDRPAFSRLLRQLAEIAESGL
Outline: as §2

T6 sequence (P06239 whole entry, species assumed, the tested form may be a part): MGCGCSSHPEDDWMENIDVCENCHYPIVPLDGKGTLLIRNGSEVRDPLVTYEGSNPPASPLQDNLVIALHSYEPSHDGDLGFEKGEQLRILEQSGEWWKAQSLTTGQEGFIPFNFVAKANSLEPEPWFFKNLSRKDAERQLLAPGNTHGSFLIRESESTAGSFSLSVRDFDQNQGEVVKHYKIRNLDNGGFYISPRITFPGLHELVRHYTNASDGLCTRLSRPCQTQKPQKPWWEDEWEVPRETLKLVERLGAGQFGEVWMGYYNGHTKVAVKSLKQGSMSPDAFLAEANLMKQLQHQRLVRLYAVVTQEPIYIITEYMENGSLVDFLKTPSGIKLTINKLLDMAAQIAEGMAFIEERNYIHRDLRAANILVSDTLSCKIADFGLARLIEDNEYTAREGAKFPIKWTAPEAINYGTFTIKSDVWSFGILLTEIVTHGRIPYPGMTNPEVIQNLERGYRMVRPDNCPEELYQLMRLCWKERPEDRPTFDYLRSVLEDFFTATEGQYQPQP
T2 sequence (P00533 25-1210, species assumed): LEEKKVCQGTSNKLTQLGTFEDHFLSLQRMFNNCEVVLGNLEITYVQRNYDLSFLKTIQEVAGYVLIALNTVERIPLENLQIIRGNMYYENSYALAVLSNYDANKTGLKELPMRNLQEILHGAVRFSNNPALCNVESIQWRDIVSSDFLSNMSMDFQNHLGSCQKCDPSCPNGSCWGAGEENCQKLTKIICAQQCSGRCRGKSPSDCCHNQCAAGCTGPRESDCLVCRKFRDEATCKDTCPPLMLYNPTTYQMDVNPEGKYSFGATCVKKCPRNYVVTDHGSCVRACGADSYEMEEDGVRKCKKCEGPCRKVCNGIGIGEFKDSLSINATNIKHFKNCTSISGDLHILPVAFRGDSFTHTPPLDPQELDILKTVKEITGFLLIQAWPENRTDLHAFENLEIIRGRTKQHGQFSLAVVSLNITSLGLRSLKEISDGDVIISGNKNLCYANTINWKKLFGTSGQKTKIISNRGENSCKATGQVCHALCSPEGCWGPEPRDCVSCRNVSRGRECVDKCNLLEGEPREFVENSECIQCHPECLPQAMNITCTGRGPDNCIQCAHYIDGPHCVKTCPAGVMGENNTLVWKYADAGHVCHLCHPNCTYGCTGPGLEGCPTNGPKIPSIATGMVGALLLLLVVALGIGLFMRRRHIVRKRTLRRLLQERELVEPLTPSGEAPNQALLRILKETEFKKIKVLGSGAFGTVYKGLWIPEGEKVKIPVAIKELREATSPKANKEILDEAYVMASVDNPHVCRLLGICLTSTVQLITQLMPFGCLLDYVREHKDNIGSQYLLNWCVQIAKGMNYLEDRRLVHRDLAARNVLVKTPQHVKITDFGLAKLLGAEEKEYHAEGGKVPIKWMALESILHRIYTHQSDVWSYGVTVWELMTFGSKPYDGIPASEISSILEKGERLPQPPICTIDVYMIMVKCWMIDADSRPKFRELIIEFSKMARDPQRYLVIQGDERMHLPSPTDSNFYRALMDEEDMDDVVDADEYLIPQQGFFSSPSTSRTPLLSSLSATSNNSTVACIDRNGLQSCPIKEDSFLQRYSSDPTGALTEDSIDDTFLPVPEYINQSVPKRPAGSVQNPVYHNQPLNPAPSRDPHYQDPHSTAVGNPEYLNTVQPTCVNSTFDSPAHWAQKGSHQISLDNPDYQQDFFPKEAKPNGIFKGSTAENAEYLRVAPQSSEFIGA
T4 sequence (Q9Y243 whole entry, the tested form may be a part): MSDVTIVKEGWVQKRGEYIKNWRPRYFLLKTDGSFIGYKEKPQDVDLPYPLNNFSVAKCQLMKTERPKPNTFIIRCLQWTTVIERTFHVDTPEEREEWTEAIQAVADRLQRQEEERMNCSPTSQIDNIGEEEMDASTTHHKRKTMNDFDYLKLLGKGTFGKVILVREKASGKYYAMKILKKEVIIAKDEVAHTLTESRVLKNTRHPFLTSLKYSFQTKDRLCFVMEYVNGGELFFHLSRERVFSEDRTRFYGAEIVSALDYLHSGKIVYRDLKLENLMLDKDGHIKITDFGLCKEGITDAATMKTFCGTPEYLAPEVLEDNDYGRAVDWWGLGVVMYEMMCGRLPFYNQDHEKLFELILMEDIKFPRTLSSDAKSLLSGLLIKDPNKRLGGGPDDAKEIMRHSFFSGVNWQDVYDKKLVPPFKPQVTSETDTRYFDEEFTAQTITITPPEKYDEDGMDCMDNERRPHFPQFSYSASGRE
T3 sequence (Q02763 23-1124, species assumed): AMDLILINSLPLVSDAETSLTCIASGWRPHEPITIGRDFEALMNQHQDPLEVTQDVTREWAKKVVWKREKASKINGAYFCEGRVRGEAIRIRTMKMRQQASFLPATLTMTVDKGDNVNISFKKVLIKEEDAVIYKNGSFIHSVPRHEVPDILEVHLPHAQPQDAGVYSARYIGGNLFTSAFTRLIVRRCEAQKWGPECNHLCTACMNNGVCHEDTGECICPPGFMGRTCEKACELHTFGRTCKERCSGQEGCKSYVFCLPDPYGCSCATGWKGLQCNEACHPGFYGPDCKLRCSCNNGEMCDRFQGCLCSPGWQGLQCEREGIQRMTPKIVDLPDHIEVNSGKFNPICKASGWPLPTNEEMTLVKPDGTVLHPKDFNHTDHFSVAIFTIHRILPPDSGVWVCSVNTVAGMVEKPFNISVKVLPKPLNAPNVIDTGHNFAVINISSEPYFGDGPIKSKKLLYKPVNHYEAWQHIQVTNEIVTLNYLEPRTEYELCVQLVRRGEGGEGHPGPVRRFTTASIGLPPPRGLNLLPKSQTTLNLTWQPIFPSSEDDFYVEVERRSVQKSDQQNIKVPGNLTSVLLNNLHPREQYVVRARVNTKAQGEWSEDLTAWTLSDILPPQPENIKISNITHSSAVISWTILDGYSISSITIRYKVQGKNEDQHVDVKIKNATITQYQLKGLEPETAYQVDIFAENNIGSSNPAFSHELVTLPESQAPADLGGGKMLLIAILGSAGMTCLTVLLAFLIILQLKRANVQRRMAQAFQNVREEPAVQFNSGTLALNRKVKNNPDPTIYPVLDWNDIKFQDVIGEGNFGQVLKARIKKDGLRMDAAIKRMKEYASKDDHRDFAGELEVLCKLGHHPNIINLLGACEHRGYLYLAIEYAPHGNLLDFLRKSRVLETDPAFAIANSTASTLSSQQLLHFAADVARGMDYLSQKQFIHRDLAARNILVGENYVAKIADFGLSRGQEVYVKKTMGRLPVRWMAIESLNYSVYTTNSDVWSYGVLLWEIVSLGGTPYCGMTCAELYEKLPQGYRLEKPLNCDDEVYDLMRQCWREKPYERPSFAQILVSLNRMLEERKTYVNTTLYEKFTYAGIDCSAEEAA
T5 sequence (P08581 25-1390): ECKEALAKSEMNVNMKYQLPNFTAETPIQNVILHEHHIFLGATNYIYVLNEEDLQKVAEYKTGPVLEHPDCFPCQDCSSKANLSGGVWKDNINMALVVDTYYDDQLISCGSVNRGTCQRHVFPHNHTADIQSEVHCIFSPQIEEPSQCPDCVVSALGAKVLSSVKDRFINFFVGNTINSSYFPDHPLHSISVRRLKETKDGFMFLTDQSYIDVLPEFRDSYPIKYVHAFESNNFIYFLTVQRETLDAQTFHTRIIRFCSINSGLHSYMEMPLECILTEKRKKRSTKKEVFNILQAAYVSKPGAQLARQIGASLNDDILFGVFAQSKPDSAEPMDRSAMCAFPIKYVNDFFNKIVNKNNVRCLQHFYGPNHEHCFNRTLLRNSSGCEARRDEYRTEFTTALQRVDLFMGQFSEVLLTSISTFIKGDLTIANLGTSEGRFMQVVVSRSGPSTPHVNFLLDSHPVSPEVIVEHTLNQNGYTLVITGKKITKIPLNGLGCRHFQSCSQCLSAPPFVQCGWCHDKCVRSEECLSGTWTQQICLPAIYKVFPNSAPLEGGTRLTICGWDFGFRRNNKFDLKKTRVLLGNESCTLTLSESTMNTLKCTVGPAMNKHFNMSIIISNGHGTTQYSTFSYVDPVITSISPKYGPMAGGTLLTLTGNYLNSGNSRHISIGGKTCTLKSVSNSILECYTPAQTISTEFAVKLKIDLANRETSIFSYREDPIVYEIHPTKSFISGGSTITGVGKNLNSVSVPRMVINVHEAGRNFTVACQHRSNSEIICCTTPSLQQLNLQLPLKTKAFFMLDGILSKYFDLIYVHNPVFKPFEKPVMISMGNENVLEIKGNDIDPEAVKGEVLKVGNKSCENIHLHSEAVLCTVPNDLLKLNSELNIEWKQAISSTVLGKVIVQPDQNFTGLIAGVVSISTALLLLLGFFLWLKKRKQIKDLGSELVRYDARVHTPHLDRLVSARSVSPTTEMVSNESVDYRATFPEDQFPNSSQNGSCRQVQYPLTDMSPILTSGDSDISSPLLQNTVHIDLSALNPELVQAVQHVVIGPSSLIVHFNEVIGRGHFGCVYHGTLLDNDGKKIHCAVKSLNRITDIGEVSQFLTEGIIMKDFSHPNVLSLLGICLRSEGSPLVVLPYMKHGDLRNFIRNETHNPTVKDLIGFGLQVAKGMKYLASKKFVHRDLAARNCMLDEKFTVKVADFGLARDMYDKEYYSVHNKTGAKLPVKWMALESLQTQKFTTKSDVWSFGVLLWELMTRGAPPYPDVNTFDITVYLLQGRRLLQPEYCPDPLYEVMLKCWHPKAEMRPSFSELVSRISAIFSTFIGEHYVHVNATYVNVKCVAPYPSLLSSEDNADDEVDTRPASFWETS

IC50 (Kdr)	IC50 (EGFR)	IC50 (Tek)	IC50 (AKT)	IC50 (c-Met)	IC50 (Lck)	IC50 (Zap-70)	IC50 (Itk)	IC50 (Kdr; Table 3)	IC50 (Lck; Table 3)	IC50 (Zap-70; Table 3)	IC50 (Itk; Table 3)	Compound
< 0.989 µM	5.93 to 8.65 µM	5.93 to 8.65 µM	> 11.1 µM	> 11.1 µM	< 0.989 µM	> 11.1 µM	0.989 to 5.93 µM					COc1cc(Nc2ncnc(Nc3cccc4ncccc34)n2)cc(OC)c1OC [Compound 695]
> 11 µM	> 11 µM	> 11 µM	> 11 µM	> 11 µM	0.975 to 5.85 µM	> 11 µM	> 11 µM					COC(=O)C(c1ccccc1)c1ncnc(Nc2cc(OC)c(OC)c(OC)c2)n1 (stereo not shown) [Compound 1038]
	> 10.7 µM	> 10.7 µM	> 10.7 µM	> 10.7 µM				0.949 to 5.69 µM	> 10.7 µM	> 10.7 µM	> 10.7 µM	COc1cc(Nc2ncnc(-n3c(N(C)C)nc4ccccc43)n2)cc(OC)c1OC [Compound 405]
	> 10.3 µM	> 10.3 µM	> 10.3 µM	> 10.3 µM				> 10.3 µM	> 10.3 µM	> 10.3 µM	> 10.3 µM	COc1cc(Nc2ncnc(Nc3nc(-c4ccccc4)cs3)n2)cc(OC)c1OC [Compound 444]
0.802 to 4.81 µM	> 9.03 µM	> 9.03 µM	> 9.03 µM	> 9.03 µM	4.81 to 7.02 µM	> 9.03 µM	4.81 to 7.02 µM					COc1cc(Nc2ncnc(-n3c(NCCc4ccncc4)nc4ccccc43)n2)cc(OC)c1OC [Compound 948]
> 9.03 µM	> 9.03 µM	> 9.03 µM	> 9.03 µM	> 9.03 µM	> 9.03 µM	> 9.03 µM	> 9.03 µM					COc1cc(Nc2ncnc(-n3c(NCc4ncccc4C)nc4ccccc43)n2)cc(OC)c1OC [Compound 941]
0.851 to 5.11 µM	5.11 to 7.45 µM	0.851 to 5.11 µM	> 9.58 µM	0.851 to 5.11 µM	0.851 to 5.11 µM	5.11 to 7.45 µM	0.851 to 5.11 µM					COc1cc(Nc2ncnc(Nc3n[nH]c(Nc4ccc(Cl)cc4)n3)n2)cc(OC)c1OC [Compound 1003]
9.36 to 12 µM	> 12 µM	> 12 µM	> 12 µM	> 12 µM	> 12 µM	> 12 µM	> 12 µM					COc1cc(Nc2ncnc(-c3cccnc3Cl)n2)cc(OC)c1OC [Compound 1075]
	> 11.3 µM	> 11.3 µM	> 11.3 µM	> 11.3 µM				> 11.3 µM	> 11.3 µM	> 11.3 µM	> 11.3 µM	COc1cc(Nc2ncnc(N[C@@H](CO)c3ccccc3)n2)cc(OC)c1OC [Compound 427]

The next lines start with the molecule.

Compound	IC50 (Kdr)	IC50 (EGFR)	IC50 (Tek)	IC50 (AKT)	IC50 (c-Met)	IC50 (Lck)	IC50 (Zap-70)	IC50 (Itk)	IC50 (Kdr; Table 3)	IC50 (Lck; Table 3)	IC50 (Zap-70; Table 3)	IC50 (Itk; Table 3)
O=c1[nH]c2ccccc2n1-c1ncnc(Nc2cnc3ccccc3c2)n1 [Compound 508]	1.13 to 6.75 µM	> 12.7 µM	6.75 to 9.85 µM	> 12.7 µM	> 12.7 µM	1.13 to 6.75 µM	> 12.7 µM	6.75 to 9.85 µM				
Nc1ncnc(-n2c(N)nc3ccccc32)n1 [Compound 646]	1.76 to 10.6 µM	> 19.8 µM	> 19.8 µM	1.76 to 10.6 µM	> 19.8 µM	> 19.8 µM	> 19.8 µM	10.6 to 15.4 µM				
O=C(O)Cc1ccc(Nc2ncnc(Nc3cc(-c4ccco4)n[nH]3)n2)cc1 [Compound 984]	< 1.06 µM	< 1.06 µM	> 11.9 µM	> 11.9 µM	1.06 to 6.36 µM	1.06 to 6.36 µM	9.27 to 11.9 µM	1.06 to 6.36 µM				
COc1cc(Nc2ncnc(-n3c(N[C@H](CO)c4ccccc4)nc4ccccc43)n2)cc(OC)c1OC [Compound 1035]	< 0.779 µM	> 8.76 µM	> 8.76 µM	> 8.76 µM	> 8.76 µM	> 8.76 µM	> 8.76 µM	> 8.76 µM				
Nc1nc2ccccc2n1-c1ncnc(Nc2ccc3c(c2)OCO3)n1 [Compound 526]	< 1.15 µM	1.15 to 6.91 µM	1.15 to 6.91 µM	6.91 to 10.1 µM	1.15 to 6.91 µM	1.15 to 6.91 µM	1.15 to 6.91 µM	1.15 to 6.91 µM				
O=c1[nH]c2ccccc2n1-c1ncnc(Nc2ccc(NS(=O)(=O)c3ccc([N+](=O)[O-])cc3)cc2)n1 [Compound 422]		0.793 to 4.76 µM	6.94 to 8.92 µM	0.793 to 4.76 µM	> 8.92 µM				0.793 to 4.76 µM	> 8.92 µM	> 8.92 µM	> 8.92 µM
COc1cc(Nc2ncnc(Nc3ccc(NC(=O)O[C@@H]4CCOC4)cc3)n2)cc(OC)c1OC [Compound 693]	0.829 to 4.97 µM	0.829 to 4.97 µM	> 9.33 µM	> 9.33 µM	0.829 to 4.97 µM	0.829 to 4.97 µM	> 9.33 µM	4.97 to 7.25 µM				
CC(C)(C)c1cc(Nc2ncnc(Nc3cccc(CC(=O)O)c3)n2)[nH]n1 [Compound 979]	6.53 to 9.53 µM	1.09 to 6.53 µM	> 12.2 µM	> 12.2 µM	1.09 to 6.53 µM	> 12.2 µM	> 12.2 µM	> 12.2 µM				
O=c1[nH]c2ccccc2n1-c1ncnc(Nc2ccncn2)n1 [Compound 492]	7.84 to 11.4 µM	7.84 to 11.4 µM	7.84 to 11.4 µM	> 14.7 µM	7.84 to 11.4 µM	> 14.7 µM	11.4 to 14.7 µM	> 14.7 µM				
CC(C)(C)c1cc(Nc2ncnc(Nc3ccc(CC(=O)O)cc3)n2)[nH]n1 [Compound 980]	> 12.2 µM	1.09 to 6.53 µM	> 12.2 µM	1.09 to 6.53 µM	9.53 to 12.2 µM	> 12.2 µM	> 12.2 µM	9.53 to 12.2 µM				
O=c1[nH]c2ccccc2n1-c1ncnc(Nc2nccc3ccccc23)n1 [Compound 689]	6.75 to 9.85 µM	1.13 to 6.75 µM	6.75 to 9.85 µM	> 12.7 µM	6.75 to 9.85 µM	6.75 to 9.85 µM	1.13 to 6.75 µM	> 12.7 µM				
